Data: patent US11993640B2, “Treating inflammatory lung disease” (United States Government as represented by the Department …, priority 2019, dated 2024)
Entries after “also recorded” stand apart in the source; their conditions may differ. Non-standard residues stand in square brackets, D forms with d. Residues, ends and D or L forms follow the SMILES beside them. *: point of attachment. Phenylacetyl(2,3,4,5,6-F5) = O=C(Cc1c(F)c(F)c(F)c(F)c1F)*; Phe(F5) = N[C@@H](Cc1c(F)c(F)c(F)c(F)c1F)C(=O)O; hArg = N=C(N)NCCCC[C@H](N)C(=O)O; 12Ado = NCCCCCCCCCCCC(=O)O; Nle = CCCC[C@H](N)C(=O)O; Orn = NCCC[C@H](N)C(=O)O; Abu = CC[C@H](N)C(=O)O

Molecular target: T1, membrane GHRH-receptors on human anterior pituitary cells (Homo sapiens, UniProt Q02643)
T1 construct: Human pituitary was purchased from the National Hormone and Peptide Program; tissue National Hormone and Peptide Program; host or cells: human pituitary membrane fractions
T1 sequence (Q02643 23-423): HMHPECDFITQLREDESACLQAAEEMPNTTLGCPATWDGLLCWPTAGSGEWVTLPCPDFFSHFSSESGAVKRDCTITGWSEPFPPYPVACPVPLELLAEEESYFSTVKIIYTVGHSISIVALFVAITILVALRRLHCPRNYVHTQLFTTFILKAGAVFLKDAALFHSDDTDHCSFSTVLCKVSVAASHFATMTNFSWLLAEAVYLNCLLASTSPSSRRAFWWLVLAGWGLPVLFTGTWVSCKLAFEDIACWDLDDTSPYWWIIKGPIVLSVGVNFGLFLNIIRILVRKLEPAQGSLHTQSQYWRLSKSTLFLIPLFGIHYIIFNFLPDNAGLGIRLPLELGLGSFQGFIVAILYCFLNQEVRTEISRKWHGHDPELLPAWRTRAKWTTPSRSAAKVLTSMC
Test: Competitive receptor binding, displacement of 125I-[His1,Nle27]-hGH-RH(1-32)NH2 from human pituitary membranes
Procedure: Receptor binding affinities in vitro. Preparation of human pituitary membrane fractions and receptor binding of analogs of GH-RH were performed (Halmos G, Rekasi Z, Szoke B, Schally A V. (1993) Receptor 3:87-97). Human pituitary was purchased from the National Hormone and Peptide Program. […] Relative affinities compared to hGH-RH(1-29)NH2 were calculated as the ratio of IC50 (dose causing 50% inhibition of specific binding to receptors) of the tested peptides to the IC50 of hGH-RH(1-29)NH2. The values were calculated from technical duplicate tubes.
Nineteen new AVR analogs of GHRH were tested in the receptor binding assay. Table 6 presents the IC50 values of GHRH antagonists to membrane GHRH-receptors binding on human anterior pituitary cells.

CCCC[C@H](NC(=O)[C@@H](NC(=O)[C@H](CC(=O)O)NC(=O)[C@H](CCC(N)=O)NC(=O)[C@H](CC(C)C)NC(=O)[C@H](CC(C)C)NC(=O)[C@H](CCCN)NC(=O)[C@H](Cc1c[nH]cn1)NC(=O)[C@H](C)NC(=O)[C@H](CO)NC(=O)[C@H](CC(C)C)NC(=O)[C@H](CCC(N)=O)NC(=O)[C@H](CC)NC(=O)[C@H](CC(C)C)NC(=O)[C@@H](NC(=O)[C@H](CCCN)NC(=O)[C@H](Cc1c[nH]cn1)NC(=O)[C@H](Cc1ccc(OC)cc1)NC(=O)[C@H](CCCCNC(=N)N)NC(=O)[C@H](C)NC(=O)[C@@H](NC(=O)[C@H](Cc1c(F)c(F)c(F)c(F)c1F)NC(=O)[C@@H](NC(=O)[C@H](C)NC(=O)[C@H](CC(=O)O)NC(=O)[C@@H](CCCNC(=N)N)NC(=O)[C@H](Cc1ccc(O)cc1)NC(=O)CCCCCCCCCCCNC(=O)Cc1c(F)c(F)c(F)c(F)c1F)[C@@H](C)CC)[C@@H](C)O)C(C)C)[C@@H](C)CC)C(=O)N[C@H](CCCNC(=N)N)C(=O)N[C@@H](CCCCNC(=N)N)C(=O)NCCCCCCCCCCCC(N)=O [AVR-553, 5FPhAC-Ada-Tyr-DArg-Asp-Ala-Ile-5FPhe-Thr-Ala-Har-Tyr(Me)-His-Orn-Val-Leu-Abu-Gln-Leu-Ser-Ala-His-Orn-Leu-Leu-Gln-Asp-Ile-Nle-DArg-Har-Ada-NH2] ({Phenylacetyl(2,3,4,5,6-F5)-12Ado}-Y[dR]DAI[Phe(F5)]TA[hArg]Y(Me)H[Orn]VL[Abu]QLSAH[Orn]LLQDI[Nle][dR][hArg][12Ado]-NH2)
Binding affinity to membrane receptors of human pituitary cells: higher binding affinity in comparison to MIA-602; also recorded: highest binding affinities
